Data on 3 compounds can be found in paper PMC8335727 (Inorganic Chemistry, 2021).

Bounds are passed on as bounds.

Data set [1] can be described thus: log D7.4 by shake-flask method, n-octanol/buffered aqueous solution. Type of data set: physicochemical. Conditions: partitioning, n-octanol/water, pH 7.4, read-out: log D7.4 (proligand). The protocol: Besides pKa values, lipophilicity is also an important pharmacological property of a drug, as it strongly influences the ability of the compound to pass through biological membranes. Therefore, distribution coefficients (log D7.4) were determined using the shake-flask method in an n-octanol-buffered aqueous solution at pH 7.4 (Table 1). The log D7.4 values indicate the moderate lipophilic character of the proligands. The substitution at the end nitrogen atom of the thosemicarbazide moiety and the presence of a methyl group at the Schiff base bond induce a somewhat higher lipophilicity. The presence of the phenolic moiety undoubtedly increases the log D7.4 values compared to those of FTSC (+0.73),[67]
The time-dependence of UV–vis absorption spectra was monitored for proligands HL2 at pH 7.4, 1.5 and 10.0 in 30% (v/v) DMSO/H2O, and for HL1 and HL3 at pH 7.4.
The redox reaction of the copper(II) complexes (25 µM) with GSH (1250 µM) was studied at 7.40 (50 mM HEPES buffer with 0.1 M KCl) and at 25.0 ± 0.1 °C on Hewlett Packard 8452A diode array spectrophotometer using a special, tightly closed tandem cuvette (Hellma Tandem Cell, 238-QS) as described previously.6,7 Calculation of the observed rate constants (kobs) of the redox reaction was performed by using a reported approach.6,7
Distribution coefficients (D7.4) values were determined by the traditional shake-flask method in n-octanol/buffered aqueous solution at pH 7.40 (50 mM HEPES buffer at 25.0 ± 0.2 °C as described previously in our previous work.8
2.4. Spectroelectrochemical studies
Cyclic voltammetry experiments with 0.5 mM solutions of Cu(II) complexes and corresponding ligands in 0.1 M n-Bu4NPF6 in both DMSO and methanol were performed under argon atmosphere using a three-electrode arrangement with glassy carbon 1 mm disc working electrode (from Ionode, Australia), platinum wire as counter electrode, and silver wire as pseudo -reference electrode. As a supporting e lectrolyte, 0.1 M n-Bu4NPF6 was used in DMSO (SeccoSolv max.
0.025% H2O, Merck) and 0.1 M LiClO4 (≥95.0%, Merck) in methanol. […]

The test system of a further data set is Colo205. As to the kind of experiment: MTT cytotoxicity assay, Colo205. Type of data set: cell-based. To be noted: Homo sapiens, COLO 205, 72 h of exposure. The protocol: (§1) The in vitro cytotoxicity of the TSCs HL^1–HL^3, copper(II) complexes Cu(HL^1)Cl2, [Cu(L^2)Cl], and Cu(HL^3)Cl2, and oxidized TSCs HL^1a′, HL^1a″, and HL^2c′·CH3COOH was tested in the doxorubicin-sensitive Colo205 and the multidrug-resistant Colo320 human colonic adenocarcinoma cell lines as well as in normal human embryonal lung fibroblast cells (MRC-5) by the colorimetric MTT assay. […]
(§2) 2.5. In vitro cell studies
(§3) 2.5.1. Cell lines and culture conditions
(§4) All cell culture reagents were obtained from Sigma-Aldrich and plastic ware from Sarstedt
(§5) (Germany). Doxorubicin-sensitive human colonic Colo 205 and multidrug resistant
(§6) Colo 320/MDR-LRP adenocarcinoma cell lines were purchased from LGC Promochem,
(§7) Teddington, UK. The cells were cultured in Roswell Park Memorial Institute (RPMI) 1640
(§8) medium supplemented with 10% heat-inactivated fetal bovine serum, 2 mM L-glutamine, 1 mM
(§9) Na-pyruvate and 100 mM Hepes. The cell lines were incubated at 37°C, in a 5% CO2, 95% air
(§10) MRC-5 human embryonal lung fibroblast cell line (ATCC CCL-171) was purchased from LGC
(§11) Promochem, Teddington, UK. The cell line was cultured in Eagle’s Minimal Essential Medi um
(§12) (EMEM, containing 4.5 g/L glucose) supplemented with a non-essential amino acid mixture, a
(§13) selection of vitamins and 10% heat-inactivated fetal bovine serum. The cells were incubated at
(§14) 37°C, in a 5% CO2, 95% air atmosphere. All cell lines were detached with Trypsin-Versene
(§15) (EDTA) solution for 5 min at 37 °C.
(§16) The tested compounds were dissolved in DMSO using 10 mM concentration. Then stock solutions
(§17) were diluted in complete culture medium in 96-well microtiter plates, and two-fold serial dilutions
(§18) of compounds were prepared in 100 µL of RPMI 1640, horizontally. The semi-adherent colonic
(§19) adenocarcinoma cells were treated with Trypsin -Versene (EDTA) solution. They were adjusted to
(§20) a density of 1×10^4 cells in 100 µL of RPMI 1640 medium, and were added to each well, with the
(§21) exception of the medium control wells. The final volume of the wells containing compounds and
(§22) cells was 200 µL. The culture were incubated at 37 °C for 72 h; at the end of the incubation period,
(§23) 20 µL of MTT solution (from a stock solution of 5 mg/mL) were added to each well. After
(§24) incubation at 37 °C for 4 h, 100 µL of SDS solution (10% in 0.01 M HCI) were added to each well
(§25) and the plates were further incubated at 37 °C overnight. The cell growth was determined using
(§26) both methods by measuring the optical density (OD) at 450 nm (ref. 620 nm) with a Multiscan EX
(§27) ELISA reader. Inhibition of the cell growth (expressed as IC 50: inhibitory concentration that
(§28) reduces by 50% the growth of the cells exposed to the tested compounds) was determined from
(§29) the sigmoid curve where 100 – ((ODsample ‒ ODmedium control)/(ODcell control ‒ ODmedium control)) × 100
(§30) values were plotted against the logarithm of compound concentrations. […]
(§31) 0.76 tyrosyl radical/polypeptide. Samples containing 20 µM mR2 in 50 mM HEPES buffer, pH
(§32) 7.50/100 mM NaCl, and 20 µM respective compound in 1% (v/v) DMSO/H2O, and 2 mM

The test system of another data set is Colo320. The experiment in a line: MTT cytotoxicity assay, Colo320. To be noted: Homo sapiens, COLO 320, 72 h of exposure. The format is cell-based. On the procedure: as §1, §2, §3, §4, §5, §6, §7, §8, §9, §10, §11, §12, §13, §14, §15, §16, §17, §18, §19, §20, §21, §22, §23, §24, §25, §26, §27, §28, §29, §30, §31, §32

With `Cc1cc(NC(=S)NN=Cc2ccccn2)cc(C)c1O` [HL^1, 2-Formylpyridine 4-(4-hydroxy-3,5-dimethylphenyl)thiosemicarbazone], the logD in data set [1] stood at 1.3. Moreover, the IC50 in the data set on Colo205 was greater than 100 µM; in the data set with Colo320, 6.32 ± 0.49 µM.

In the case of `CC(=NNC(=S)Nc1cc(C)c(O)c(C)c1)c1ccccn1` [HL^2, 2-Acetylpyridine 4-(4-hydroxy-3,5-dimethylphenyl)thiosemicarbazone], the logD in data set [1] was determined as 2.1. Further, the half-inhibitory concentration (IC50) in the data set on Colo205 and in the data set with Colo320 was greater than 100 µM in each case.

`Cc1cc(NC(=S)NN=Cc2ncccc2N)cc(C)c1O` [HL^3, 3-Amino-2-formylpyridine 4-(4-hydroxy-3,5-dimethylphenyl)thiosemicarbazone]: the logD in data set [1] came to 1.67. The figures for the IC50 with Colo205 and in the data set on Colo320 were 48.2 ± 6.8 µM and greater than 100 µM, respectively.

As usually defined, the IC50 is the concentration at which inhibition is half-maximal. A lower IC50 goes with greater potency in that assay.
